Entries after “also recorded” stand apart in the source; their conditions may differ. Like-named read-outs stand apart in the source and are kept apart here.
Key:
[1] = test system: PANC-1 human epithelioid carcinoma cells; test: MTT antiproliferative assay, 72 h; format: cell-based
Description: (§1) Antiproliferative activity of compound 2 was evaluated using a colorimetric MTT assay for 72 h. […] Compound 2 activity was studied on different cancer cell lines: two glioma cell lines (T98G, Hs683), one breast cancer cell line (MDA-MB-231), one lung cancer cell line (A549) and one pancreatic cell line (PANC-1). A mean submicromolar antiproliferative activity was observed (Table 2). […] Cytotoxicity of compound 2 against normal cells (epithelial breast cells MCF-10a) vs. cancer cells (MDA-MB-231) was also determined. […] MDA-MB-231 human breast cancer cells, T98G human brain cancer cells and PANC-1 human epithelioid carcinoma were maintained in culture in 75-cm^2 polystyrene flasks (Corning®, […], Luxembourg) with respectively 15 mL of Dulbecco's modified Eagle's medium (#341966-029 DMEM 1X; ThermoFisher, Gibco®, Geel, Belgium) containing 4.5g/L of glucose, 10% of fetal calf serum (#10270 ThermoFisher, Gibco®, Geel, Belgium) and supplemented with penicillin-streptomycin 10,000 U/mL (#15140 ThermoFisher, Gibco®, Geel, Belgium) incubated under an atmosphere containing 5% CO2. HS683 human glioma and A549 human lung carcinoma were maintained in culture in 75-cm^2 polystyrene flasks (Corning®) with respectively 15 mL of Roswell Park Memorial Institute medium (Gibco® RPMI 1640, Thermofisher, Geel, Belgium) containing 10% of fetal calf serum (#10270 ThermoFisher, Gibco®, Geel, Belgium) and supplemented with penicillin-streptomycin 10,000 U/mL (#15140 ThermoFisher, Gibco®, Geel, Belgium), glutamine (200 mM) and HEPES (25 mM) incubated under an atmosphere containing 5% CO2. MCF-10-a human non-tumorigenic breast epithelial cells were maintained in 75-cm^2 polystyrene flasks (Corning®, […], Luxembourg) with 15 mL of Gibco®, Geel, Belgium) F-12 Nutrient Mixture (Ham) containing 5% of horse serum (Invitrogen®) supplemented with 10 μg/mL of human Insulin (Sigma®, Schnelldorf, Germany), 0.5 μ/mL of Hydrocortisone (Sigma®, Schnelldorf, Germany) and 20 ng/mL of Epidermal Growth Factor (Peprotech®, London, UK) incubated under an atmosphere containing 5% CO2. The cell lines were obtained from the American Type Culture Collection (ATCC, Manassas, VA). Antiproliferative activity and overall cytotoxicity of compound 2 on cancer and normal cells lines (breast cancer cell line MDA-MB231 and non-tumorigenic breast epithelial cells (MCF-10a) were determined in vitro using colorimetric MTT (Sigma-Aldrich (Schnelldorf, Germany)) solution (0.5 mg/mL in PBS) assay according to a protocol adapted from. Cells were seeded in 96-well culture plate (1200 cells/well 1 day before incubation and were treated for 72 h in culture medium at 37 °C with different concentrations of compound 2 ranging from 1 nM to 10 μM, with semilog concentration increasing of the compound. The yellow MTT product was converted to a purple formazan derivative through mitochondrial enzymatic reduction. At the end of the incubation of 4 h, the plate was centrifugated at 1200 rpm for 5 min and the MTT solution was decanted. Then, blue formazan was solubilized with DMSO and absorbance at 570 nm, which is directly proportional to the number of metabolic active cells, is determined. Experiments were carried out in sextuplicates.

Hs683 human glioma cells = test: MTT antiproliferative assay, 72 h; format: cell-based
Description: as §1

[2] = test system: T98G human brain cancer cells; test: MTT antiproliferative assay, 72 h; format: cell-based
Description: as §1

[3] = test system: MDA-MB-231 human breast cancer cells; test: MTT antiproliferative assay, 72 h; format: cell-based
Description: as §1

[4] = test system: A549 human lung carcinoma cells; test: MTT antiproliferative assay, 72 h; format: cell-based
Description: as §1

[5] = Stability in three media by UV spectra from 0 h to 72 h at 37 °C; format: physicochemical; settings: pH 1.1, pH 7.4 and simulated injection vehicle (0.9% NaCl, 0.1% Polysorbate 80)
Description: (§2) Compound 2 solubility and stability measurements were performed at 37 °C at pH 1.1 (0.02 M NaCl, pH 1.1 obtained by HCl addition) to mimic gastric conditions, at pH 7.4 (0.050 M Na2HPO4/NaH2PO4 and 0.02 M NaCl, pH 7.4) and simulated injection vehicle (0.9% NaCl and 0.1% Polysorbate 80). Stability measurements were performed from 0 h to 72 h after complete solubilization. […] At pH 1.1 as well as in the simulated injection vehicle, a higher solubility is observed in comparison with the solubility at physiological pH. Solubility is 1.06 ± 0.08 mg/mL at physiological pH, 1.62 ± 0.13 mg/mL at acidic pH, as well as 1.87 ± 0.07 mg/mL in a simulated vehicle injection (Table 1).
We have evaluated the stability of compound 2 in three different conditions (at pH 1.1, at pH 7.4 and in a simulated injection vehicle) for three days and at 37 °C because it is compatible with physiological temperature and because a higher temperature can result in a better solubilization. We observe that the compound remains stable for at least three days in the three different solutions tested, which allowed determination of its thermodynamic solubility. […]

[6] = test system: A549, MDA-MB-231, PANC-1, T98G and Hs683 cell lines; test: MTT antiproliferative assay, 72 h, summary over five cancer cell lines; format: cell-based; settings: Homo sapiens, A549, MDA-MB-231, PANC-1, T98G and Hs683, MTT, read-out: IC50 range over five cancer cell lines
Description: (§3) Antiproliferative activity of compound 2 was evaluated using a colorimetric MTT assay for 72 h. […] Compound 2 activity was studied on different cancer cell lines: two glioma cell lines (T98G, Hs683), one breast cancer cell line (MDA-MB-231), one lung cancer cell line (A549) and one pancreatic cell line (PANC-1). A mean submicromolar antiproliferative activity was observed (Table 2). […] Cytotoxicity of compound 2 against normal cells (epithelial breast cells MCF-10a) vs. cancer cells (MDA-MB-231) was also determined. […] Antiproliferative activity and overall cytotoxicity of compound 2 on cancer and normal cells lines (breast cancer cell line MDA-MB231 and non-tumorigenic breast epithelial cells (MCF-10a) were determined in vitro using colorimetric MTT (Sigma-Aldrich (Schnelldorf, Germany)) solution (0.5 mg/mL in PBS) assay according to a protocol adapted from. Cells were seeded in 96-well culture plate (1200 cells/well 1 day before incubation and were treated for 72 h in culture medium at 37 °C with different concentrations of compound 2 ranging from 1 nM to 10 μM, with semilog concentration increasing of the compound. […] Then, blue formazan was solubilized with DMSO and absorbance at 570 nm, which is directly proportional to the number of metabolic active cells, is determined. […]

[7] = test system: MCF-10a human non-tumorigenic breast epithelial cells; test: MTT cytotoxicity on normal cells vs. cancer cells; format: cell-based; settings: in the IC50 concentration range
Description: as §3

[8] = Thermodynamic solubility by UV absorbance at 330 nm after 72 h stirring at 37 °C; format: physicochemical; settings: thermodynamic from solid
Description: as §2
Solubility of compound 2 was evaluated at 37 °C, at pH 1.1 (0.02 M NaCl, pH 1.1 obtained by HCl addition), at physiological pH (buffer 0.050 M Na2HPO4/NaH2PO4 and 0.02 M NaCl, pH 7.4) as well as in a simulated injection vehicle (0.9% NaCl and 0.1% Polysorbate 80 pH 7.4). To this aim, an excess of compound 2 was placed in the […] media in a 24 well plate and stirred (1200 rpm) 72 h at 37 °C after hermetic sealing. After 72 h of stirring, the solutions were filtered (0.2 µm) and diluted 100 times. The solubility was determined by UV absorbance at 330 nm using a calibration curve (five points in a range of concentration between 0.005 and 0.1 mg/mL). All measurements were made in triplicate and adequate dissolutions were performed to stay in Beer-Lambert conditions.

[9] = Kinetic solubility by HPLC, Multiscreen Solubility Filter plate; format: physicochemical
Source text: From those data, we chose an isopentyl substituent on position 7, which is suitable to decrease neurotoxicity of the targeted compound. We selected a propyl group on position 9 as a short alkyl substituent, seems to be suitable to maintain good antiproliferative properties. […] This high activity can result in low administered doses, thus counter-balancing the low LD50 associated with this N^2 substitution. […] It has been shown that pyridine scaffold in lead compounds can result in higher solubility because of the presence of the heteroatom. Finally, the pyridyl group offers good potential for salification and/or cocrystallization which can also improve pharmacological properties.
The kinetic solubility of compounds 1a and 1b was determined by HPLC method, using a Multiscreen Solubility Filter 96-well plate (Merck®) using a test adapted from. First, the calibration curve was performed from five solutions (3.13 µM 12.5 µM, 50 µM, 200 µM and 500 µM, with a final DMSO concentration of 5%). The kinetic solubility was measured in triplicate at physiological pH in phosphate buffer (0.05 M Na2HPO4; 0.02 M NaCl adjusted at physiological pH using solution NaH2PO4 0.05 M; NaCl 0.02 M) and in acidic condition (0.2 M HCl, 0.03 M NaCl adjusted at pH = 1.1 using HCl 37%). […]

CCCn1c2cc(OCCC(C)C)ccc2c2cc[n+](Cc3ccccn3)c(C)c21.[Br-] [compound 2, 1-methyl-7-(3-methylbutoxy)-9-propyl-2-[(pyridin-2-yl)methyl]-9H-pyrido[3,4-b]indol-2-ium bromide]
IC50 ([1]; Homo sapiens, PANC-1, MTT, 72 h): 350 nM | Cytostatic at IC50 ([1]; PANC-1, metabolic activity at IC50 compared with T = 0 h): No | IC50 (Hs683 human glioma cells): 305 nM | IC50 (Hs683 human glioma cells; Homo sapiens, Hs 683, 72 h): < 500 nM | IC50 ([2]; Homo sapiens, MTT, 72 h): 2190 nM | Cytostatic at IC50 ([2]; metabolic activity at IC50 compared with T = 0 h): No | IC50 ([3]; Homo sapiens, MDA-MB-231, MTT, 72 h): 449 nM | Cytostatic at IC50 ([3]; MDA-MB-231, metabolic activity at IC50 compared with T = 0 h): cytostatic behavior; also recorded: cytostatic effect | Cytostatic at IC50 ([4]; A549, metabolic activity at IC50 compared with T = 0 h): cytostatic behavior; also recorded: cytostatic effect | IC50 ([4]; Homo sapiens, A549, MTT, 72 h): 261 nM | Time for which the compound is stable (no modification of UV spectra) [5]: at least 72 h | IC50 [6]: 200 to 2000 nM | Activity on normal cells (MCF-10a) vs. cancer cells (MDA-MB-231) [7]: more active on a cancer cell line than on normal cells | Activity on normal cells (MCF-10a) vs. cancer cells (MDA-MB-231) ([7]; listed as 1-methyl-7-(3-methylbutoxy)-9-propyl-2-[(pyridin-2-yl)methyl]-9H-pyrido[3,4-b]in): more active on cancer cells (MDA-MB-231) than on normal cells (MCF-10a) | solubility thermodynamic at 72 h ([8]; 0.02 M NaCl solution acidified with HCl, pH 1.1, simulated gastric fluid, pH 1.1 (0.02 M NaCl, HCl), read-out: Mean thermodynamic solubility at 37 °C): 1620 ± 130 µg/mL | solubility thermodynamic at 72 h ([8]; 0.02 M NaCl solution acidified with HCl, pH 1.1, simulated gastric fluid, pH 1.1 (0.02 M NaCl, HCl), read-out: Thermodynamic solubility at 37 °C replicate 1): 1460 ± 10 µg/mL | solubility thermodynamic at 72 h ([8]; 0.02 M NaCl solution acidified with HCl, pH 1.1, simulated gastric fluid, pH 1.1 (0.02 M NaCl, HCl), read-out: Thermodynamic solubility at 37 °C replicate 2): 1630 ± 20 µg/mL | solubility thermodynamic at 72 h ([8]; 0.02 M NaCl solution acidified with HCl, pH 1.1, simulated gastric fluid, pH 1.1 (0.02 M NaCl, HCl), read-out: Thermodynamic solubility at 37 °C replicate 3): 1770 ± 10 µg/mL | solubility thermodynamic at 72 h ([8]; phosphate buffer, pH 7.4, aqueous buffer, pH 7.4 phosphate buffer, read-out: Mean thermodynamic solubility at 37 °C): 1060 ± 80 µg/mL | solubility thermodynamic at 72 h ([8]; phosphate buffer, pH 7.4, aqueous buffer, pH 7.4 phosphate buffer, read-out: Thermodynamic solubility at 37 °C replicate 1): 980 ± 10 µg/mL | solubility thermodynamic at 72 h ([8]; phosphate buffer, pH 7.4, aqueous buffer, pH 7.4 phosphate buffer, read-out: Thermodynamic solubility at 37 °C replicate 2): 990 ± 10 µg/mL | solubility thermodynamic at 72 h ([8]; phosphate buffer, pH 7.4, aqueous buffer, pH 7.4 phosphate buffer, read-out: Thermodynamic solubility at 37 °C replicate 3): 1150 ± 10 µg/mL | solubility thermodynamic at 72 h ([8]; simulated injection vehicle, pH 7.4, aqueous with cosolvent or surfactant or cyclodextrin, injection vehicle (0.9% NaCl and 0.1% Polysorbate 80), read-out: Mean thermodynamic solubility at 37 °C): 1870 ± 70 µg/mL | solubility thermodynamic at 72 h ([8]; simulated injection vehicle, pH 7.4, aqueous with cosolvent or surfactant or cyclodextrin, injection vehicle (0.9% NaCl and 0.1% Polysorbate 80), read-out: Thermodynamic solubility at 37 °C replicate 1): 1950 ± 10 µg/mL | solubility thermodynamic at 72 h ([8]; simulated injection vehicle, pH 7.4, aqueous with cosolvent or surfactant or cyclodextrin, injection vehicle (0.9% NaCl and 0.1% Polysorbate 80), read-out: Thermodynamic solubility at 37 °C replicate 2): 1900 ± 40 µg/mL | solubility thermodynamic at 72 h ([8]; simulated injection vehicle, pH 7.4, aqueous with cosolvent or surfactant or cyclodextrin, injection vehicle (0.9% NaCl and 0.1% Polysorbate 80), read-out: Thermodynamic solubility at 37 °C replicate 3): 1770 ± 10 µg/mL

CCCn1c2cc(OCCC(C)C)ccc2c2ccnc(C)c21 [1b, 1-methyl-7-(3-methylbutoxy)-9-propyl-9H-pyrido[3,4-b]indole]
Kinetic solubility at low pH ([9]; acidic condition pH 1.1, 5% DMSO, preliminary data, values only in Figure 2B): good solubility at low pH

Cc1nccc2c1[nH]c1cc(OCCC(C)C)ccc12 [1a, 1-methyl-7-(3-methylbutoxy)-9H-pyrido[3,4-b]indole]
Kinetic solubility at low pH ([9]; pH 1.1): good solubility at low pH

Reference: article PMC6471559, “Design and Synthesis of a New Soluble Natural β-Carboline Derivative for Preclinical Study by Intravenous Injection” (International Journal of Molecular Sciences, 2019)
